Test results reported in ChEMBL document CHEMBL1136587, “Optimisation of aryl substitution leading to potent methionyl tRNA synthetase inhibitors with excellent gram-positive antibacterial activity” (Bioorg Med Chem Lett, 2003).
Values after ≈ are worked out from the molar mass of the structure shown.

Legend:
Staphylococcus aureus [1] = test: In vitro Antibacterial activity of compound against Staphylococcus aureus Oxford; format: functional
Enterococcus faecalis = test: In vitro Antibacterial activity of compound against Enterococcus faecalis 1; format: functional
Staphylococcus aureus [2] = test: In vitro Antibacterial activity of compound against Staphylococcus aureus
[3] = tested on: Staphylococcus epidermidis; test: In vitro Antibacterial activity of compound against Staphylococcus epidermidis
Enterococcus faecium = test: In vitro Antibacterial activity of compound against Enterococcus faecium
[4] = molecular target: Methionine--tRNA ligase (Enterococcus faecalis (strain ATCC 700802 / V583)) (UniProt Q837B3); test: In vitro Antibacterial activity of compound against Enterococcus faecalis; format: functional
[5] = molecular target: Methionine--tRNA ligase (Enterococcus faecalis (strain ATCC 700802 / V583)) (UniProt Q837B3); test: In vitro Antibacterial activity of compound against Enterococcus faecalis 7; format: functional

Sequence of Methionine--tRNA ligase (Enterococcus faecalis (strain ATCC 700802 / V583)) (Q837B3 whole entry): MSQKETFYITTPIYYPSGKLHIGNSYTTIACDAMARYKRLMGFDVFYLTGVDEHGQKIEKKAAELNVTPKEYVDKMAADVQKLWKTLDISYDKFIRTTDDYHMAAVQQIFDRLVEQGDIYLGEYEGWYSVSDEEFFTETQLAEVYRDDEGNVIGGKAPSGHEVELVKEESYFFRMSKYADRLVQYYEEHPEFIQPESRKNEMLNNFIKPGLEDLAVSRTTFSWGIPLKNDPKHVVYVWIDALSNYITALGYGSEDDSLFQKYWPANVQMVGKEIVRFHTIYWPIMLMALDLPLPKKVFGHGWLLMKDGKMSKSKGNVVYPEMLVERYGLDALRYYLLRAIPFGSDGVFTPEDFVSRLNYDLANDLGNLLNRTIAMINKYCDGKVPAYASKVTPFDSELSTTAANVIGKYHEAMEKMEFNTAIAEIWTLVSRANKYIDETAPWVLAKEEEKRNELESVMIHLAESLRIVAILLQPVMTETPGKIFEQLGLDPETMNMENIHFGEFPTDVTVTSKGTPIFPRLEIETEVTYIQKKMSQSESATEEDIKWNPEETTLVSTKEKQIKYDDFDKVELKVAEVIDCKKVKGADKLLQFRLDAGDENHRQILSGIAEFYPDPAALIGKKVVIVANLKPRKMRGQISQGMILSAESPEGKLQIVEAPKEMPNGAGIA

Row | Structure (SMILES) | MIC (Staphylococcus aureus [1]) [µg/mL] | MIC (Enterococcus faecalis) [µg/mL] | also measured
1 | CCc1cc(Br)cc2c1NCCC2NCCCNc1cc(O)c2ccccc2n1 (stereo not given) | 0.25 (≈ 0.549 µM) | < 0.06 | –
2 | Oc1cc(NCCCNCc2ccccc2)nc2ccccc12 | > 64 | > 64 | –
3 | CCOc1c(CNCCCNc2cc(O)c3ccccc3n2)cc(Br)cc1SC | 0.5 (≈ 1.05 µM) | 1 (≈ 2.1 µM) | –
4 | CCOc1c(C)cc(Br)cc1CNCCCNc1cc(O)c2ccccc2n1 | 0.13 (≈ 0.293 µM) | < 0.06 | –
5 | CCOc1c(Br)cc(C)cc1CNCCCNc1cc(O)c2ccccc2n1 | 2 (≈ 4.5 µM) | 0.25 (≈ 0.563 µM) | –
6 | CCOc1c(I)cc(COC)cc1CNCCCNc1cc(O)c2ccccc2n1 | 8 (≈ 15.3 µM) | 2 (≈ 3.84 µM) | –
7 | CCOc1c(I)cc(I)cc1CNCCCNc1cc(O)c2ccccc2n1 | < 0.06 | < 0.06 | –
8 | O=c1cc(NCCCNC2CCOc3c(I)cc(Cl)cc32)[nH]c2ccccc12 (stereo not given) | < 0.06 | < 0.06 | MIC90 (Staphylococcus aureus [2]): 0.25 µg/mL (≈ 0.49 µM); MIC90 [3]: 0.25 µg/mL (≈ 0.49 µM)
9 | CCOc1cc(Br)c(OCC)c(CNCCCNc2cc(O)c3ccccc3n2)c1 | 8 (≈ 16.9 µM) | 4 (≈ 8.43 µM) | –
10 | CCOc1c(Cl)cc(Cl)cc1CNCCCNc1cc(O)c2ccccc2n1 | 0.13 (≈ 0.309 µM) | < 0.06 | MIC90 (Enterococcus faecium): < 0.016 µg/mL; MIC90 (Staphylococcus aureus [2]): 2 µg/mL (≈ 4.76 µM); MIC90 [3]: 2 µg/mL (≈ 4.76 µM); MIC90 [4]: 0.06 µg/mL (≈ 0.143 µM)
11 | Oc1cc(NCCCNC2CCNc3c(Cl)cc(Br)cc32)nc2ccccc12 (stereo not given) | < 0.06 | < 0.06 | –
12 | CCOc1c(I)cc(OC)cc1CNCCCNc1cc(O)c2ccccc2n1 | 0.5 (≈ 0.985 µM) | 0.13 (≈ 0.256 µM) | –
13 | CCOc1c(CNCCCNc2cc(O)c3ccccc3n2)cc(I)cc1COC | 16 (≈ 30.7 µM) | 8 (≈ 15.3 µM) | –
14 | Oc1cc(NCCCSCc2ccc(Cl)c(Cl)c2)nc2ccccc12 | > 64 | > 64 | –
15 | CCOc1c(Br)cc(OC)cc1CNCCCNc1cc(O)c2ccccc2n1 | 0.13 (≈ 0.282 µM) | < 0.06 | MIC90 (Enterococcus faecium): 0.03 µg/mL (≈ 0.0652 µM); MIC90 (Staphylococcus aureus [2]): 2 µg/mL (≈ 4.34 µM); MIC90 [3]: 2 µg/mL (≈ 4.34 µM); MIC90 [4]: 0.06 µg/mL (≈ 0.13 µM)
16 | CCOc1c(CNCCCNc2cc(O)c3ccccc3n2)cc(I)cc1OC | 2 (≈ 3.94 µM) | < 0.06 | –
17 | Oc1cc(NCCCNC2CCOc3c(Cl)cc(I)cc32)nc2ccccc12 (stereo not given) | 0.13 (≈ 0.255 µM) | < 0.06 | –
18 | Cc1cc(Br)c2c(c1)C(NCCCNc1cc(O)c3ccccc3n1)CCN2 (stereo not given) | 1 (≈ 2.27 µM) | 0.25 (≈ 0.566 µM) | –
19 | CCOc1c(Br)cc(I)cc1CNCCCNc1cc(O)c2ccccc2n1 | < 0.06 | < 0.06 | –
20 | CCc1cc(I)c2c(c1)C(NCCCNc1cc(=O)c3ccccc3[nH]1)CCN2 (stereo not given) | 0.25 (≈ 0.498 µM) | < 0.06 | MIC90 (Enterococcus faecium): 0.06 µg/mL (≈ 0.119 µM); MIC90 (Staphylococcus aureus [2]): 1 µg/mL (≈ 1.99 µM); MIC90 [3]: 1 µg/mL (≈ 1.99 µM); MIC90 [4]: 0.25 µg/mL (≈ 0.498 µM)
21 | Oc1cc(NCCCNCc2cc(I)cc(I)c2)nc2ccccc12 | < 0.06 | < 0.06 | –
22 | CCOc1c(I)cc(CO)cc1CNCCCNc1cc(O)c2ccccc2n1 | > 64 | > 64 | –
23 | CCOc1c(Br)cc([S+](C)[O-])cc1CNCCCNc1cc(O)c2ccccc2n1 (stereo not given) | 4 (≈ 8.12 µM) | 2 (≈ 4.06 µM) | –

Row | Structure (SMILES) | MIC (Staphylococcus aureus [1]) [µg/mL] | MIC (Enterococcus faecalis) [µg/mL] | also measured
24 | CCOc1c(C)cc(SC)cc1CNCCCNc1cc(O)c2ccccc2n1 | < 0.06 | < 0.06 | –
25 | CCOc1c(C)cc(C(F)(F)F)cc1CNCCCNc1cc(=O)c2ccccc2[nH]1 | 0.5 (≈ 1.15 µM) | 0.25 (≈ 0.577 µM) | –
26 | CCOc1c(C)cc(I)cc1CNCCCNc1cc(O)c2ccccc2n1 | < 0.06 | < 0.06 | –
27 | Oc1cc(NCCCNC2CCNc3c(Cl)cc(Cl)cc32)nc2ccccc12 (stereo not given) | 0.13 (≈ 0.311 µM) | < 0.06 | –
28 | Oc1cc(NCCCNC2CCNc3c(Br)cc(Cl)cc32)nc2ccccc12 (stereo not given) | < 0.06 | < 0.06 | MIC90 (Enterococcus faecium): < 0.016 µg/mL; MIC90 (Staphylococcus aureus [2]): 1 µg/mL (≈ 2.17 µM); MIC90 [3]: 1 µg/mL (≈ 2.17 µM); MIC90 [4]: 0.06 µg/mL (≈ 0.13 µM)
29 | CCOc1c(C)cc(Cl)cc1CNCCCNc1cc(O)c2ccccc2n1 | 0.25 (≈ 0.625 µM) | < 0.06 | –
30 | CCOc1c(C)cc(C#N)cc1CNCCCNc1cc(O)c2ccccc2n1 | 8 (≈ 20.5 µM) | 4 (≈ 10.2 µM) | –
31 | C=CCOc1c(Cl)cc(Cl)cc1CNCCCNc1cc(O)c2ccccc2n1 | 0.5 (≈ 1.16 µM) | < 0.06 | –
32 | Oc1cc(NCCCNC2CCNc3c(Br)cc(Br)cc32)nc2ccccc12 (stereo not given) | < 0.06 | < 0.06 | MIC90 (Enterococcus faecium): < 0.016 µg/mL; MIC90 (Staphylococcus aureus [2]): 0.5 µg/mL (≈ 0.988 µM); MIC90 [3]: 0.5 µg/mL (≈ 0.988 µM); MIC90 [4]: 0.03 µg/mL (≈ 0.0593 µM)
33 | CCOc1c(C#N)cc(Br)cc1CNCCCNc1cc(O)c2ccccc2n1 | 0.5 (≈ 1.1 µM) | 0.25 (≈ 0.549 µM) | –
34 | Oc1cc(NCCCNCc2cc(Cl)cc(Cl)c2)nc2ccccc12 | 1 (≈ 2.66 µM) | 0.13 (≈ 0.345 µM) | –
35 | Oc1cc(NCCCNCc2cc(Cl)cc(Cl)c2Cl)nc2ccccc12 | 0.25 (≈ 0.609 µM) | – | MIC [5]: < 0.06 µg/mL
36 | Oc1cc(NCCCOCc2ccc(Cl)c(Cl)c2)nc2ccccc12 | > 64 | > 64 | –
37 | CCOC(=O)c1cc(I)cc(CNCCCNc2cc(O)c3ccccc3n2)c1OCC | 32 (≈ 58.2 µM) | 8 (≈ 14.6 µM) | –
38 | O=c1cc(NCCCNCc2ccc(Cl)c(Cl)c2)[nH]c2ccccc12 | 4 (≈ 10.6 µM) | 2 (≈ 5.32 µM) | –
39 | CCNc1c(Br)cc(Br)cc1CNCCCNc1cc(O)c2ccccc2n1 | 1 (≈ 1.97 µM) | < 0.06 | –
40 | O=c1cc(NCCCNC2CCOc3c(Cl)cc(Cl)cc32)[nH]c2ccccc12 (stereo not given) | 0.13 (≈ 0.311 µM) | < 0.06 | –
41 | CNc1c(Br)cc(Br)cc1CNCCCNc1cc(O)c2ccccc2n1 | 0.5 (≈ 1.01 µM) | 0.13 (≈ 0.263 µM) | –
42 | Nc1c(Br)cc(Br)cc1CNCCCNc1cc(O)c2ccccc2n1 | 0.13 (≈ 0.271 µM) | < 0.06 | –
43 | CCOC(=O)c1cc(I)c(OCC)c(CNCCCNc2cc(O)c3ccccc3n2)c1 | 32 (≈ 58.2 µM) | 8 (≈ 14.6 µM) | –
44 | CCOc1c(Br)cc(C#N)cc1CNCCCNc1cc(O)c2ccccc2n1 | 4 (≈ 8.78 µM) | 1 (≈ 2.2 µM) | –
45 | C=CCc1cc(I)cc(CNCCCNc2cc(O)c3ccccc3n2)c1OCC | 0.13 (≈ 0.251 µM) | 1 (≈ 1.93 µM) | –
46 | CCOc1c(Cl)cc(OC)cc1CNCCCNc1cc(O)c2ccccc2n1 | 0.25 (≈ 0.601 µM) | < 0.06 | –

Row | Structure (SMILES) | MIC (Staphylococcus aureus [1]) [µg/mL] | MIC (Enterococcus faecalis) [µg/mL] | also measured
47 | CCOc1c(Br)cc(SC)cc1CNCCCNc1cc(O)c2ccccc2n1 | < 0.06 | < 0.06 | MIC90 (Enterococcus faecium): 0.5 µg/mL (≈ 1.05 µM); MIC90 (Staphylococcus aureus [2]): 0.25 µg/mL (≈ 0.525 µM); MIC90 [3]: 0.25 µg/mL (≈ 0.525 µM); MIC90 [4]: 0.5 µg/mL (≈ 1.05 µM)
48 | Oc1cc(NCCCNCc2cc(Cl)ccc2Cl)nc2ccccc12 | 4 (≈ 10.6 µM) | 16 (≈ 42.5 µM) | –
49 | Oc1cc(NCCCNCc2cc(Br)cc(Br)c2)nc2ccccc12 | 0.25 (≈ 0.537 µM) | < 0.06 | –
50 | CC(C)Oc1c(Cl)cc(Cl)cc1CNCCCNc1cc(O)c2ccccc2n1 | 2 (≈ 4.6 µM) | – | MIC [5]: 0.5 µg/mL (≈ 1.15 µM)
51 | CCOc1c(CO)cc(I)cc1CNCCCNc1cc(O)c2ccccc2n1 | 32 (≈ 63.1 µM) | 32 (≈ 63.1 µM) | –
52 | CCOc1c(CNCCCNc2cc(=O)c3ccccc3[nH]2)cc(I)cc1C(C)(C)C | 32 (≈ 60 µM) | 8 (≈ 15 µM) | –
53 | Oc1cc(NCCCNC2CCCc3c(Cl)cc(Cl)cc32)nc2ccccc12 (stereo not given) | 0.25 (≈ 0.6 µM) | < 0.06 | –
54 | Oc1cc(NCCCNC2CCc3c(Cl)cc(Cl)cc32)nc2ccccc12 (stereo not given) | 0.25 (≈ 0.621 µM) | < 0.06 | –
55 | Oc1cc(NCCCNC2COc3c(Cl)cc(Cl)cc32)nc2ccccc12 (stereo not given) | 2 (≈ 4.95 µM) | 0.125 (≈ 0.309 µM) | –
56 | Oc1cc(NCCCNCc2cc(Br)cc(I)c2)nc2ccccc12 | < 0.06 | < 0.06 | –
57 | Oc1cc(NCCCNCc2cc(Br)cc(Br)c2OCC(F)(F)F)nc2ccccc12 | 0.25 (≈ 0.444 µM) | < 0.06 | –
58 | CCOc1c(CNCCCNc2cc(O)c3ccccc3n2)cc(Br)cc1OC | 4 (≈ 8.69 µM) | 2 (≈ 4.34 µM) | –
59 | Oc1cc(NCCCNCc2cccc(Cl)c2Cl)nc2ccccc12 | 8 (≈ 21.3 µM) | – | MIC [5]: 2 µg/mL (≈ 5.32 µM)
60 | Oc1cc(NCCCNCc2ccc(Cl)cc2Cl)nc2ccccc12 | 4 (≈ 10.6 µM) | – | MIC [5]: 4 µg/mL (≈ 10.6 µM)
61 | O=c1cc(NCCCNC2CCOc3c(Br)cc(Br)cc32)[nH]c2ccccc12 (stereo not given) | < 0.06 | < 0.06 | –
62 | Cc1cc(Br)cc2c1NCCC2NCCCNc1cc(O)c2ccccc2n1 (stereo not given) | 0.5 (≈ 1.13 µM) | < 0.06 | –
63 | O=C(NCCCNc1cc(O)c2ccccc2n1)c1ccc(Cl)c(Cl)c1 | > 64 | > 64 | –
64 | CCOc1c(I)cc(C)cc1CNCCCNc1cc(O)c2ccccc2n1 | 2 (≈ 4.07 µM) | 0.5 (≈ 1.02 µM) | –
65 | CCOc1c(Br)cc(Br)cc1CNCCCNc1cc(O)c2ccccc2n1 | < 0.06 | < 0.06 | –
66 | CCOc1c(I)cc(Br)cc1CNCCCNc1cc(O)c2ccccc2n1 | < 0.06 | < 0.06 | –
67 | CCOc1c(Br)cc(S(C)(=O)=O)cc1CNCCCNc1cc(O)c2ccccc2n1 | > 64 | 8 (≈ 15.7 µM) | –
